# From ChEMBL document CHEMBL1138067, “A new synthesis of sulfonamides by aminolysis of p-nitrophenylsulfonates yielding potent and selective adenosine A2B receptor antagonists” (J Med Chem, 2006)
# pKi: −log10 of the molar value.
# Legend:
# [1] = target: T1, Adenosine receptor A3 (Homo sapiens, UniProt P0DMS8); assay: Displacement of [3H]PSB11 from human recombinant adenosine A3 receptor expressed in CHO cells; type: cell-based
# T1 sequence (P0DMS8 whole entry): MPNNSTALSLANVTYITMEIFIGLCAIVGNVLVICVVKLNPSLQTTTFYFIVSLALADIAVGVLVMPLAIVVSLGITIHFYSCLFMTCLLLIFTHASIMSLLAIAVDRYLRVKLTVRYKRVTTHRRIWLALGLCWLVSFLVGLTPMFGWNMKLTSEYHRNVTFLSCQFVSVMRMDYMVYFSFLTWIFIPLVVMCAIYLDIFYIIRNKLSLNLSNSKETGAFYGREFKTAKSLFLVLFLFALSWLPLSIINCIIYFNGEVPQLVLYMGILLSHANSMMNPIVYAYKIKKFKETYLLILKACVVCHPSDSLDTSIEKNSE
# [2] = target: Adenosine receptors; A1 & A2b (Homo sapiens) (UniProt P30542+P29275); assay: Selectivity for human adenosine A2B receptor over adenosine A1 receptor; type: protein assay
# [3] = target: T2, Adenosine receptor A1 (Homo sapiens, UniProt P30542); assay: Displacement of [3H]CCPA from human recombinant adenosine A1 receptor expressed in CHO cells; type: cell-based
# T2 sequence (P30542 whole entry): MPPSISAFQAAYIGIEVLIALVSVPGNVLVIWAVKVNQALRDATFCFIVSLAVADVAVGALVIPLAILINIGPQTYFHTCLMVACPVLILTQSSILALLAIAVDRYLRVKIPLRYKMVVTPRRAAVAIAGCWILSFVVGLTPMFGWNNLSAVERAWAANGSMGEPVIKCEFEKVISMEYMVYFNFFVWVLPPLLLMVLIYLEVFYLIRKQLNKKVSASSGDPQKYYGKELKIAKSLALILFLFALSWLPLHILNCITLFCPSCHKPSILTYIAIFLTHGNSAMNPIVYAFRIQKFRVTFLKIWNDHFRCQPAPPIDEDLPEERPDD
# [4] = target: T3, Adenosine receptor A1 (Rattus norvegicus, UniProt P25099); assay: Displacement of [3H]CCPA from adenosine A1 receptor in rat brain cortical membranes; type: cell membranes, Membrane
# T3 sequence (P25099 whole entry): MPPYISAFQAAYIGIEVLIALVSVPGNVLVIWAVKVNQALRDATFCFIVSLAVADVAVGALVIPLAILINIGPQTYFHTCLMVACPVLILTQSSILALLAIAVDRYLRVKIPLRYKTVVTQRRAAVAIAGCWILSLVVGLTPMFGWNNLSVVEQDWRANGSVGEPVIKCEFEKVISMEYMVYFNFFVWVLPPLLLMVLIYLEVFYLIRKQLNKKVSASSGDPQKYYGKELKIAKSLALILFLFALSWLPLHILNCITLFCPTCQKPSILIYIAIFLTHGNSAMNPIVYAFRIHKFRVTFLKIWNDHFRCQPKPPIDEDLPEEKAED
# [5] = target: Adenosine receptors; A2b & A3 (Homo sapiens) (UniProt P29275+P0DMS8); assay: Selectivity for human adenosine A2B receptor over adenosine A3 receptor; type: protein assay
# [6] = target: T4, Adenosine receptor A3 (Homo sapiens) (UniProt P0DMS8); assay: (§1) Inhibition of [3H]PSB11 binding to human recombinant adenosine A3 receptor in CHO cells at >=10 uM; type: cell-based
# T4 sequence (whole entry): T1 sequence (P0DMS8 whole entry)
# [7] = target: T5, Adenosine receptor A2b (Homo sapiens, UniProt P29275); assay: Displacement of [3H]PSB298 from human recombinant adenosine A2B receptor expressed in CHO cells; type: cell-based
# T5 sequence (P29275 whole entry): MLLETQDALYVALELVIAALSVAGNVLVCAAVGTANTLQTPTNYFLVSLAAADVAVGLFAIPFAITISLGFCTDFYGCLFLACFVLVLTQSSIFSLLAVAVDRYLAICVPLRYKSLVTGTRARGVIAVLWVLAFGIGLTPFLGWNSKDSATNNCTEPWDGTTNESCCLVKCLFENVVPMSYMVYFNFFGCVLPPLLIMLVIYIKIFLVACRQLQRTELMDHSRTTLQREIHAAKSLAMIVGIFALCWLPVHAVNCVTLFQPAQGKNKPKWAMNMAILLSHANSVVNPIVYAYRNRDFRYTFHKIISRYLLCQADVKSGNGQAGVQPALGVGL
# [8] = target: Adenosine receptor A2a (Homo sapiens, UniProt P29274); assay: Displacement of [3H]MSX2 from human recombinant adenosine A2A receptor expressed in CHO cells; type: cell-based
# [9] = target: Adenosine receptor A2a (Rattus norvegicus, UniProt P30543); assay: Displacement of [3H]MSX2 from adenosine A2A receptor in rat brain striatal membranes; type: cell membranes, Membrane
# [10] = target: T4, Adenosine receptor A3 (Homo sapiens); assay: Inhibition of [3H]PSB11 binding to human recombinant adenosine A3 receptor in CHO cells at >1 uM; type: cell-based
# [11] = target: T4, Adenosine receptor A3 (Homo sapiens); assay: Inhibition of [3H]PSB11 binding to human recombinant adenosine A3 receptor in CHO cells at >10 uM; type: cell-based
# [12] = target: T1, Adenosine receptor A3; assay: Displacement of [125I]AB-MECA from human recombinant adenosine A3 receptor expressed in CHO cells; type: cell-based
# [13] = target: T4, Adenosine receptor A3 (Homo sapiens); assay: Inhibition of [3H]PSB11 binding to human recombinant adenosine A3 receptor in CHO cells at >=1 uM; type: cell-based
# [14] = target: T1, Adenosine receptor A3; assay: as §1; type: cell-based
# Adenosine receptor A2a (Rattus norvegicus, UniProt P30543), sequence (P30543 whole entry): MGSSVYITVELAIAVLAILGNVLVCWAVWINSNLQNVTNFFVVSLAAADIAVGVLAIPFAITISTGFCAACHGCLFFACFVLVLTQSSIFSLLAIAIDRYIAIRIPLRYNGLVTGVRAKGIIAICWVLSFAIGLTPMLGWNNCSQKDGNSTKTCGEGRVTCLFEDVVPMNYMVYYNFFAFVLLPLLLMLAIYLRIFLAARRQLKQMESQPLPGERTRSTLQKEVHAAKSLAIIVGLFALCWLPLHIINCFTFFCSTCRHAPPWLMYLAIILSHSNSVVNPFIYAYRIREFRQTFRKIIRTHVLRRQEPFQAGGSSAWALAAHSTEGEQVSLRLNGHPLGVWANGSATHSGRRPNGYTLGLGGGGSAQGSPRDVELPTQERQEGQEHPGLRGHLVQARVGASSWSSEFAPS
# Adenosine receptor A2a (Homo sapiens, UniProt P29274), sequence (P29274 whole entry): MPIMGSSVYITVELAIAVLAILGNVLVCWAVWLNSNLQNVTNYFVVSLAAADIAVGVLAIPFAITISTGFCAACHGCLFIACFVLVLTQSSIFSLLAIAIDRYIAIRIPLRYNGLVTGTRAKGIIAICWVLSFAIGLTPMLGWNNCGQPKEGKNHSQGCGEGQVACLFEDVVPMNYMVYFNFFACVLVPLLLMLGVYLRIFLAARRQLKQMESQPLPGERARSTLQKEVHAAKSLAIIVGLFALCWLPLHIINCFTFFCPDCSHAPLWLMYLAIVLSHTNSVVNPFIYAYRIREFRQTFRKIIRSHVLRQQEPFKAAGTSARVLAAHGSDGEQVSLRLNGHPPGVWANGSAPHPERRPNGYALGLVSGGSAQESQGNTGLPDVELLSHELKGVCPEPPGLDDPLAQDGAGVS
SMILES,pKi [1],pKi [4],pKi [7],pKi [9],further results
CCCn1c(=O)[nH]c2nc(-c3ccc(S(=O)(=O)N4CCN(Cc5ccccc5)CC4)cc3)[nH]c2c1=O,< 6.00,6.59,8.44,7.03,Selectivity ratio [2]: 574; pKi [3]: 5.68; inhibition [10]: 29%; Selectivity ratio [5]: > 278; pKi [8]: 6.32
Cn1c(=O)c2[nH]c(-c3ccc(S(=O)(=O)NCCc4ccccc4)cc3)nc2n(C)c1=O,5.97,7.92,8.35,6.95,pKi [3]: 6.73; pKi [8]: 7.49
CC(C)NS(=O)(=O)c1ccc(-c2nc3c([nH]2)c(=O)n(C)c(=O)n3C)cc1,< 5.00,7.12,6.99,6.55,
CCCn1c(=O)[nH]c2[nH]c(-c3ccc(S(=O)(=O)NCC(=O)O)cc3)nc2c1=O,,,,,inhibition [11]: 25%
Cn1c(=O)c2nc(-c3ccc(S(=O)(=O)NCCO)cc3)[nH]c2n(C)c1=O,,,,,inhibition [6]: 49%
Cn1c(=O)c2[nH]c(-c3ccc(S(=O)(=O)O)cc3)nc2n(C)c1=O,,,,,pKi [12]: 5.23
CCCCNS(=O)(=O)c1ccc(-c2nc3c(=O)n(C)c(=O)n(C)c3[nH]2)cc1,,,,,inhibition [6]: 43%
CCCN(CCC)S(=O)(=O)c1ccc(-c2nc3c(=O)n(CCC)c(=O)[nH]c3[nH]2)cc1,,,,,inhibition [10]: 18%
Cn1c(=O)c2[nH]c(-c3ccc(S(=O)(=O)NCCO)cc3)nc2n(C)c1=O,≤ 5.00,7.01,6.60,6.46,
CCCn1c(=O)[nH]c2[nH]c(-c3ccc(S(=O)(=O)NCc4ccccc4)cc3)nc2c1=O,≤ 6.00,8.34,8.38,7.57,Selectivity ratio [2]: 13; pKi [3]: 7.26; inhibition [13]: 41%; Selectivity ratio [5]: > 200; pKi [8]: 6.79
Cn1c(=O)c2nc(-c3ccc(S(=O)(=O)NCC(=O)O)cc3)[nH]c2n(C)c1=O,≤ 5.00,7.19,6.81,6.74,inhibition [14]: 41%
CC(C)NS(=O)(=O)c1ccc(-c2nc3c(=O)n(C)c(=O)n(C)c3[nH]2)cc1,,,,,inhibition [11]: 27%

# The next lines start with results.
pKi [1],pKi [4],pKi [7],pKi [9],SMILES,further results
≤ 5.00,8.00,8.44,6.53,CCCn1c(=O)[nH]c2[nH]c(-c3ccc(S(=O)(=O)NCCc4ccccc4)cc3)nc2c1=O,Selectivity ratio [2]: 50; pKi [3]: 6.74; Selectivity ratio [5]: > 2700; inhibition [6]: 37%; pKi [8]: 6.11
< 5.00,,,,CCCn1c(=O)[nH]c2nc(-c3ccc(S(=O)(=O)O)cc3)[nH]c2c1=O,pKi [3]: < 5.00
≤ 5.00,7.35,7.57,6.54,CCCn1c(=O)[nH]c2[nH]c(-c3ccc(S(=O)(=O)NCCO)cc3)nc2c1=O,inhibition [6]: 36%
≤ 5.00,7.57,6.91,6.78,CCCCNS(=O)(=O)c1ccc(-c2nc3c([nH]2)c(=O)n(C)c(=O)n3C)cc1,
< 5.00,7.00,7.00,6.49,CCCn1c(=O)[nH]c2nc(-c3ccc(S(=O)(=O)NCC(=O)O)cc3)[nH]c2c1=O,
< 6.00,8.26,7.27,7.38,CCCN(CCC)S(=O)(=O)c1ccc(-c2nc3[nH]c(=O)n(CCC)c(=O)c3[nH]2)cc1,
≤ 6.00,8.74,7.50,7.64,CCCn1c(=O)[nH]c2[nH]c(-c3ccc(S(=O)(=O)Nc4ccccc4)cc3)nc2c1=O,inhibition [13]: 48%
